US20240174618A1, “SUBSTITUTED (2-HETEROARYLOXYPHENYL)SULFONATES, SALTS THEREOF AND THEIR USE AS HERBICIDAL AGENTS” (Bayer Aktiengesellschaft, priority 2021, published 2024)

Experiments:
Type in all cases: in vivo
Kochia scoparia (KCHSC) [1] = assay: A. Herbicidal pre-emergence efficacy, KCHSC
From the text: (§1) Seeds of mono- and dicotyledonous weed plants were placed in plastic pots in sandy loam soil (doubly sown with one species each of mono- or dicotyledonous weed plants per pot) and covered with soil. The compounds of the invention, formulated in the form of wettable powders (WP) or as emulsion concentrates (EC), were then applied onto the surface of the covering soil as aqueous suspension or emulsion with addition of 0.5% additive at a water application rate of 600 liters per hectare (converted). After the treatment, the pots were placed in a greenhouse and kept under good growth conditions for the test plants. After about 3 weeks, the efficacy of the preparations was scored visually in comparison with untreated controls as percentages.
(§2) For example, • 100% efficacy=plants have died, • 0% efficacy=like untreated control plants.
(§3) Tables A1a to A12c below show the effects of selected compounds of the general formula (I) according to table 1 on various harmful plants at an application rate corresponding to 1280 g/ha or less, which were obtained by the experimental procedure mentioned above.

Stellaria media (STEME) [2] = assay: A. Herbicidal pre-emergence efficacy, STEME
From the text: as §1, §2, §3

[3] = tested on: Amaranthus retroflexus (AMARE); assay: B. Herbicidal post-emergence efficacy, AMARE
Experimental: (§4) Seeds of mono- and dicotyledonous weed plants were placed in plastic pots in sandy loam soil (doubly sown with in each case one species of mono- or dicotyledonous weed plants per pot), covered with soil and cultivated in a greenhouse under controlled growth conditions. 2 to 3 weeks after sowing, the test plants were treated at the one-leaf stage. The compounds of the invention, formulated in the form of wettable powders (WP) or as emulsion concentrates (EC), were applied onto the green parts of the plants as aqueous suspension or emulsion with addition of 0.5% additive at a water application rate of 600 liters per hectare (converted). After the test plants had been kept in the greenhouse under optimum growth conditions for about 3 weeks, the activity of the preparations was rated visually in comparison to untreated controls.
(§5) For example, • 100% efficacy=plants have died, • 0% efficacy=like untreated control plants
(§6) Tables B1a to B12c below show the effects of selected inventive compounds of the general formula (I) according to table 1 on various harmful plants at an application rate corresponding to 1280 g/ha or less, which were obtained by the experimental procedure mentioned above.

Stellaria media (STEME) [4] = assay: B. Herbicidal post-emergence efficacy, STEME
Experimental: as §4, §5, §6

[5] = tested on: Abutilon theophrasti (ABUTH); assay: A. Herbicidal pre-emergence efficacy, ABUTH; settings: scored visually after about 3 weeks vs untreated controls
From the text: as §1, §2, §3

Veronica persica (VERPE) [6] = assay: A. Herbicidal pre-emergence efficacy, VERPE
From the text: as §1, §2, §3

[7] = tested on: Abutilon theophrasti (ABUTH); assay: B. Herbicidal post-emergence efficacy, ABUTH; settings: rated visually after about 3 weeks
Experimental: as §4, §5, §6

[8] = tested on: Amaranthus retroflexus (AMARE); assay: A. Herbicidal pre-emergence efficacy, AMARE
From the text: as §1, §2, §3

Setaria viridis (SETVI) = assay: A. Herbicidal pre-emergence efficacy, SETVI
From the text: as §1, §2, §3

[9] = tested on: Echinochloa crus-galli (ECHCG); assay: A. Herbicidal pre-emergence efficacy, ECHCG; settings: scored visually after about 3 weeks vs untreated controls
From the text: as §1, §2, §3

Veronica persica (VERPE) [10] = assay: B. Herbicidal post-emergence efficacy, VERPE
Experimental: as §4, §5, §6

Lolium rigidum (LOLRI) = assay: A. Herbicidal pre-emergence efficacy, LOLRI; settings: dosage 1280 g/ha
From the text: as §1, §2, §3

[11] = tested on: Digitaria sanguinalis (DIGSA); assay: A. Herbicidal pre-emergence efficacy, DIGSA; settings: scored visually after about 3 weeks vs untreated controls
From the text: as §1, §2, §3

Poa annua (POAAN) [12] = assay: A. Herbicidal pre-emergence efficacy, POAAN; settings: dosage 1280 g/ha
From the text: as §1, §2, §3

Poa annua (POAAN) [13] = assay: B. Herbicidal post-emergence efficacy, POAAN; settings: 1280 g/ha
Experimental: as §4, §5, §6

Kochia scoparia (KCHSC) [14] = assay: B. Herbicidal post-emergence efficacy, KCHSC; settings: for Post-emergence efficacy against KCHSC in %: rated visually after about 3 weeks; for Post-emergence efficacy against KCHSC: 1280 g/ha
Experimental: as §4, §5, §6

[15] = tested on: Matricaria inodora (MATIN); assay: A. Herbicidal pre-emergence efficacy, MATIN
From the text: as §1, §2, §3

[16] = tested on: Echinochloa crus-galli (ECHCG); assay: B. Herbicidal post-emergence efficacy, ECHCG; settings: 1280 g/ha, rated visually after about 3 weeks
Experimental: as §4, §5, §6

[17] = pre-emergence, dosage 1280 g/ha

SMILES | Pre-emergence efficacy against KCHSC (Kochia scoparia (KCHSC) [1]; pre-emergence, dosage 320 g/ha) | Pre-emergence efficacy against KCHSC (Kochia scoparia (KCHSC) [1]; [17]) | Pre-emergence efficacy against STEME (Stellaria media (STEME) [2]; dosage 1280 g/ha) | Post-emergence efficacy against AMARE ([3]; 320 g/ha) | Post-emergence efficacy against AMARE ([3]; 1280 g/ha) | Post-emergence efficacy against STEME (Stellaria media (STEME) [4]; 1280 g/ha) | Pre-emergence efficacy against ABUTH ([5]; 1280 g/ha) | Pre-emergence efficacy against VERPE in % (Veronica persica (VERPE) [6]; 1280 g/ha) | Post-emergence efficacy against ABUTH in % ([7]; 1280 g/ha) | Pre-emergence efficacy against AMARE in % ([8]; 80 g/ha) | Pre-emergence efficacy against AMARE in % ([8]; 320 g/ha) | Pre-emergence efficacy against AMARE in % ([8]; 1280 g/ha) | Pre-emergence efficacy against SETVI (Setaria viridis (SETVI); dosage 320 g/ha) | Pre-emergence efficacy against SETVI (Setaria viridis (SETVI); dosage 1280 g/ha) | Pre-emergence efficacy against ECHCG ([9]; 1280 g/ha) | Post-emergence efficacy against VERPE (Veronica persica (VERPE) [10]; 320 g/ha) | Post-emergence efficacy against VERPE (Veronica persica (VERPE) [10]; 1280 g/ha) | Pre-emergence efficacy against DIGSA ([11]; 1280 g/ha) | Post-emergence efficacy against KCHSC in % (Kochia scoparia (KCHSC) [14]; 320 g/ha) | Post-emergence efficacy against KCHSC (Kochia scoparia (KCHSC) [14]) | also measured
CCC(C)S(=O)(=O)Oc1ccccc1Oc1ncc(Cl)cn1 (centres unmarked) [Example I-22] | 90% | 100% | 100% | 90% | 100% | 90% | 100% | 90% | 100% | 90% | 90% | 100% | 90% | 100% | 90% | 100% | 100% | 100% | 90% | 100% | Pre-emergence efficacy against STEME (Stellaria media (STEME) [2]; dosage 80 g/ha): 100%; Pre-emergence efficacy against STEME (Stellaria media (STEME) [2]; dosage 320 g/ha): 100%; Post-emergence efficacy against STEME (Stellaria media (STEME) [4]; 80 g/ha): 90%; Post-emergence efficacy against STEME (Stellaria media (STEME) [4]; 320 g/ha): 90%; Pre-emergence efficacy against ABUTH ([5]; 320 g/ha): 100%; Post-emergence efficacy against ABUTH in % ([7]; 320 g/ha): 90%; Pre-emergence efficacy against ECHCG ([9]; 320 g/ha): 90%; Post-emergence efficacy against VERPE (Veronica persica (VERPE) [10]; 80 g/ha): 90%; Pre-emergence efficacy against LOLRI (Lolium rigidum (LOLRI)): 90%; Pre-emergence efficacy against DIGSA ([11]; 320 g/ha): 100%; Pre-emergence efficacy against POAAN (Poa annua (POAAN) [12]): 90%; Post-emergence efficacy against POAAN (Poa annua (POAAN) [13]): 90%; Post-emergence efficacy against KCHSC in % (Kochia scoparia (KCHSC) [14]; 80 g/ha): 90%
CS(=O)(=O)Oc1ccccc1Oc1ncc(Cl)cn1 [Example I-1] | 100% | 100% | – | 100% | 100% | – | 100% | 100% | – | 100% | 100% | 100% | 90% | 100% | 100% | 90% | 100% | – | 100% | 100% | Post-emergence efficacy against AMARE ([3]; 80 g/ha): 100%; Pre-emergence efficacy against VERPE in % (Veronica persica (VERPE) [6]; 320 g/ha): 100%; Pre-emergence efficacy against MATIN ([15]; 320 g/ha, scored visually after about 3 weeks vs untreated controls): 90%; Pre-emergence efficacy against MATIN [15, 17]: 100%; Pre-emergence efficacy against POAAN (Poa annua (POAAN) [12]): 90%; Post-emergence efficacy against KCHSC in % (Kochia scoparia (KCHSC) [14]; 80 g/ha): 90%
Cc1cccc(Oc2ncc(Cl)cn2)c1OS(=O)(=O)CCCC(F)(F)C(F)(F)F [Example I-69] | – | 90% | 90% | 100% | 100% | 100% | 90% | 100% | 100% | 90% | 100% | 100% | – | 100% | 90% | 100% | 100% | 90% | 100% | 100% | Post-emergence efficacy against ECHCG in % [16]: 100%; Post-emergence efficacy against AMARE ([3]; 80 g/ha): 100%; Post-emergence efficacy against STEME (Stellaria media (STEME) [4]; 320 g/ha): 90%; Post-emergence efficacy against ABUTH in % ([7]; 80 g/ha): 90%; Post-emergence efficacy against ABUTH in % ([7]; 320 g/ha): 90%; Post-emergence efficacy against VERPE (Veronica persica (VERPE) [10]; 80 g/ha): 100%; Post-emergence efficacy against POAAN (Poa annua (POAAN) [13]): 90%; Post-emergence efficacy against KCHSC in % (Kochia scoparia (KCHSC) [14]; 80 g/ha): 90%
COCCS(=O)(=O)Oc1ccccc1Oc1ncc(Cl)cn1 [Example I-20] | 90% | 100% | 100% | 90% | 100% | 100% | 100% | – | 90% | – | – | 90% | 90% | 100% | 100% | 90% | 100% | 100% | 90% | 100% | Pre-emergence efficacy against KCHSC (Kochia scoparia (KCHSC) [1]; 80 g/ha, scored visually after about 3 weeks vs untreated controls): 90%; Pre-emergence efficacy against STEME (Stellaria media (STEME) [2]; dosage 320 g/ha): 100%; Pre-emergence efficacy against ABUTH ([5]; 80 g/ha): 100%; Pre-emergence efficacy against ABUTH ([5]; 320 g/ha): 100%; Pre-emergence efficacy against MATIN [15, 17]: 100%; Pre-emergence efficacy against LOLRI (Lolium rigidum (LOLRI)): 90%; Pre-emergence efficacy against DIGSA ([11]; 320 g/ha): 100%; Pre-emergence efficacy against POAAN (Poa annua (POAAN) [12]): 90%; Post-emergence efficacy against POAAN (Poa annua (POAAN) [13]): 90%
